Data: patent US20180360040A1, “PESTICIDAL COMPOUNDS AND THEIR USES” (priority 2015, published 2018)

Legend:
Format in all cases: in vivo
Diabrotica balteata = assay: Example B1: Diabrotica balteata (corn root worm), sprayed maize sprouts; details: 96 h, read-out: effect in at least one of the two categories (mortality or growth inhibition)
Procedure: Example B1: Diabrotica balteata (Corn Root Worm)
Maize sprouts placed onto an agar layer in 24-well microtiter plates were treated with aqueous test solutions prepared from 10,000 ppm DMSO stock solutions by spraying. After drying, the plates were infested with L2 larvae (6 to 10 per well). The samples were assessed for mortality and growth inhibition in comparison to untreated samples 4 days after infestation.

Myzus persicae = assay: Example B4: Myzus persicae (green peach aphid), intrinsic activity; details: 120 h, test rate 12 ppm, 5 days after infestation
Text: Example B4: Myzus persicae (Green Peach Aphid): Intrinsic Activity
Test compounds prepared from 10,000 ppm DMSO stock solutions were applied by pipette into 24-well microtiter plates and mixed with sucrose solution. The plates were closed with a stretched Parafilm. A plastic stencil with 24 holes was placed onto the plate and infested pea seedlings were placed directly on the Parafilm. The infested plate was closed with a gel blotting paper and another plastic stencil and then turned upside down. The samples were assessed for mortality 5 days after infestation.

Spodoptera littoralis [1] = assay: Example B5: Spodoptera littoralis (Egyptian cotton leaf worm), sprayed cotton leaf discs; details: foliar, 72 h, application rate 200 ppm, L1 larvae, 3 days after infestation, read-out: control (mortality, anti-feeding effect, growth inhibition)
Procedure: Example B5: Spodoptera littoralis (Egyptian Cotton Leaf Worm)
Cotton leaf discs were placed onto agar in 24-well microtiter plates and sprayed with aqueous test solutions prepared from 10,000 ppm DMSO stock solutions. After drying the leaf discs were infested with five L1 larvae. The samples were assessed for mortality, anti-feeding effect, and growth inhibition in comparison to untreated samples 3 days after infestation. Control of Spodoptera littoralis by a test sample is given when at least one of the categories mortality, anti-feedant effect, and growth inhibition is higher than the untreated sample.

Aedes aegypti = assay: Example B11: insecticide impregnated polymer surfaces (LDPE sheets), Aedes aegypti; details: 2% active ingredient in LDPE sheets, after 48 h and/or 24 h
Text: (§1) Example B11: Evaluation of Insecticide Impregnated Polymer Surfaces
(§2) Preparation of polymeric sheets: Compound P1.17 was impregnated into LDPE (low density polyethylene) by mixing the respective polymer with the compound at high temperatures and the resultant polymeric material was then mould into thin discs or plaques.
(§3) Twenty four hours prior to the relevant assessment intervals, three to five day old non-blood fed adult mosquitoes were taken from the culture and lightly anaesthetised with carbon dioxide. Ten females were selected and placed in a 250 ml plastic cup, retained with a net lid, provided with a 10% sucrose solution soaked in a cotton wool bung and held under culturing environmental conditions.
(§4) After twenty four hours, impregnated polymer sheets (measuring about 150 mm in diameter and about 0.1 mm in thickness) were removed from storage and wrapped around the glazed side of an 11 cm ceramic tile and held in place with an elastic band. The age of the polymer sheets used were either 1-2 weeks or 10 weeks old. A cup of the pre-selected mosquitoes were again lightly anaesthetised with carbon dioxide and transferred from the holding cup to the base of a 9 cm plastic Petri dish. The relevant impregnated polymer sheet was placed over the Petri dish and held in place with an elastic band. Once the mosquitoes had recovered from the anaesthetic, ca. 1 minute, the impregnated polymer sheet was placed on a holding rack, such that treated side was at an angle of 60° to the horizontal.
(§5) After one hour an assessment of mosquito knockdown was made. A mosquito was said to be knocked down if it was unable to right itself once it had fallen over. The mosquitoes were lightly anaesthetised again, and removed from the Petri dish exposure chamber and returned to the holding cups. The mosquitoes were supplied with a 10% sucrose solution soaked in a cotton wool bung and held under culturing environmental conditions. An assessment of mortality was made 24 hours and 48 hours after exposure. A mosquito was said to be dead if it is unable to right itself once it had fallen over.

Plutella xylostella = assay: Example B4 (second): Plutella xylostella (diamond back moth), artificial diet; details: 120 h, application rate 200 ppm, L2 larvae, 5 days after infestation, read-out: effect in at least one of the two categories (mortality or growth inhibition)
Procedure: Example B4: Plutella xylostella (Diamond Back Moth)
24-well microtiter plates with artificial diet were treated with aqueous test solutions prepared from 10,000 ppm DMSO stock solutions by pipetting. After drying, the plates were infested with L2 larvae (10 to 15 per well). The samples were assessed for mortality and growth inhibition in comparison to untreated samples 5 days after infestation.

Anopheles stephensi = assay: Example B11: insecticide impregnated polymer surfaces (LDPE sheets), Anopheles stephensi; details: 2% active ingredient in LDPE sheets, after 48 h and/or 24 h
Text: as §1, §2, §3, §4, §5

Tetranychus urticae = assay: Example B7: Tetranychus urticae (two-spotted spider mite), feeding/contact activity; details: 192 h, application rate 200 ppm, mixed population (mobile stages), 8 days after infestation
Procedure: Example B7: Tetranychus urticae (Two-Spotted Spider Mite): Feeding/Contact Activity
Bean leaf discs on agar in 24-well microtiter plates were sprayed with aqueous test solutions prepared from 10,000 ppm DMSO stock solutions. After drying the leaf discs were infested with a mite population of mixed ages. The samples were assessed for mortality on mixed population (mobile stages) 8 days after infestation.

Euschistus heros = assay: Example B2: Euschistus heros (neotropical brown stink bug), sprayed soybean leaves; details: 120 h, application rate 200 ppm, N2 nymphs, 5 days after infestation, read-out: effect in at least one of the two categories (mortality or growth inhibition)
Procedure: Example B2: Euschistus heros (Neotropical Brown Stink Bug)
Soybean leaves on agar in 24-well microtiter plates were sprayed with aqueous test solutions prepared from 10,000 ppm DMSO stock solutions. After drying the leaves were infested with N2 nymphs. The samples were assessed for mortality and growth inhibition in comparison to untreated samples 5 days after infestation.

Spodoptera littoralis [2] = assay: Example B6: Spodoptera littoralis (Egyptian cotton leaf worm), root uptake by lettuce from agar; details: 144 h, test rate 12.5 ppm, 6 days after infestation, read-out: effect in at least one of the three categories (mortality, anti-feeding, or growth inhibition)
Text: Example B6: Spodoptera littoralis (Egyptian Cotton Leaf Worm)
Test compounds were applied by pipette from 10,000 ppm DMSO stock solutions into 24-well plates and mixed with agar. Lettuce seeds were placed onto the agar and the multi well plate was closed by another plate which contained also agar. After 7 days the compound was absorbed by the roots and the lettuce grew into the lid plate. The lettuce leaves were then cut off into the lid plate. Spodoptera eggs were pipetted through a plastic stencil onto a humid gel blotting paper and the lid plate was closed with it. The samples were assessed for mortality, anti-feedant effect and growth inhibition in comparison to untreated samples 6 days after infestation.

Row | SMILES | percent control (mortality or growth inhibition) at 200 ppm (Diabrotica balteata) [%] | mortality at 12 ppm (Myzus persicae) [%] | mortality at 200 ppm (Spodoptera littoralis [1]) [%] | percent effect (mortality or growth inhibition) at 200 ppm (Plutella xylostella) [%] | mortality at 200 ppm (Tetranychus urticae) [%] | other results
1 | CN1OC(c2ccccc2)(C2CC2)N=C1NC(C)(C)C (stereo not shown) [Compound P1.17, N-tert-Butyl-5-cyclopropyl-2-methyl-5-phenyl-1,2,4-oxadiazol-3-amine] | ≥ 80 | ≥ 80 | ≥ 80 | ≥ 80 |  | control of Aedes Aegypti (Aedes aegypti; sheet after 1 week): at least 80%; control of Aedes Aegypti (Aedes aegypti; sheet after 2 weeks): at least 80%; control of Aedes Aegypti (Aedes aegypti; sheet after 10 weeks): at least 80%; control of Anopheles stephensi (Anopheles stephensi; sheet after 1 week): at least 80%; control of Anopheles stephensi (Anopheles stephensi; sheet after 2 weeks): at least 80%; control of Anopheles stephensi (Anopheles stephensi; sheet after 10 weeks): at least 80%
2 | CCC1(c2ccccc2)N=C(NC(C)(C)C)N(C)O1 (stereo not shown) [Compound P1.94, N-tert-Butyl-5-ethyl-2-methyl-5-phenyl-1,2,4-oxadiazol-3-amine] | ≥ 80 |  |  |  | ≥ 80 | 
3 | CN1OC(c2ccc(C#N)cc2)(C2CC2)N=C1NC(C)(C)C (stereo not shown) [Compound P1.136, 4-[3-(tert-butylamino)-5-cyclopropyl-2-methyl-1,2,4-oxadiazol-5-yl]benzonitrile] | ≥ 80 |  |  |  |  | 
4 | CN1OC(c2ccccc2)(C2CC2)N=C1N(C)C(C)(C)C (stereo not shown) [Compound P1.18, N-tert-Butyl-5-cyclopropyl-N,2-dimethyl-5-phenyl-1,2,4-oxadiazol-3-amine] | ≥ 80 |  |  |  |  | 
5 | CN1OC(c2ccc(F)cc2)(C2CC2)N=C1NC(C)(C)C(F)(F)F (stereo not shown) [Compound P1.88, 5-Cyclopropyl-5-(4-fluorophenyl)-2-methyl-N-(2,2,2-trifluoro-1,1-dimethyl-ethyl)-1,2,4-oxadiazol-3-amine] | ≥ 80 | ≥ 80 | ≥ 80 | ≥ 80 | ≥ 80 | percent effect (mortality or growth inhibition) at 200 ppm (Euschistus heros): ≥ 80%; percent effect (mortality, anti-feeding or growth inhibition) at 12.5 ppm (Spodoptera littoralis [2]): ≥ 80%
6 | CN1OC(c2ccc(-c3ccc(F)cc3)cc2)(C2CC2)N=C1NC(C)(C)C (stereo not shown) [Compound P1.137, N-tert-butyl-5-cyclopropyl-5-[4-(4-fluorophenyl)phenyl]-2-methyl-1,2,4-oxadiazol-3-amine] | ≥ 80 |  |  |  |  | 
